# Assay: Round table sweetness evaluation by test panelists (sucrose equivalent value, SEV)
# Format: in vivo
# Settings: equal sweet 10 SEV concentrations in neutral pH water, room temperature; references 4%-14% sucrose
# Protocol: Round table evaluations were performed with test panelists. Equal sweet 10 SEV concentrations in neutral pH water were made for allulose, AceK and fructose, as well as a composition comprising allulose, AceK and fructose. The components of the test compositions are described in the below tables. The mixed compositions were calculated using the Beidler mixture equation for the sweeteners. The Beidler mixture equation for sweeteners is as follows: […]
# The concentration of each component in the mixture in ppm is divided by SEV (c/R) and is plotted against concentration, c. The slope of the linear regression is […]. The y-intercept of the linear regression multiplied by Rmax is the half-maximal sweetness concentration, 1/K. Rmax and 1/K are the two parameters used in the Beidler equation
# The equal-molar mixture was tested against reference samples for the panelists to determine SEV values. […] The test samples were served in 2 ounce soufflé cups (approximately 60 ml) coded with 3-digit codes at room temperature. A two minute wait period between samples was enforced. Water and unsalted crackers was available for the panelists to clear their palates before and during testing. EyeQuestion, software distributed by Logic8 BV of Elst, The Netherlands, was used for ballot development and recording of results. Results were collected in EyeQuestion for calculating approximate SEV level of each test sample.
# The test products analyzed in this experiment are described below in Table 1.
Structure (SMILES),"Mean sucrose equivalent value (SEV), Mean 1","Median sucrose equivalent value (SEV), Median 1"
"CC1=CC(=O)[N-]S(=O)(=O)O1.[K+] [AceK, potassium salt of 6-methyl-1,2,3-oxathiazine-4(3H)-one 2,2-dioxide]",9.286,8
"O=C(CO)[C@@H](O)[C@H](O)[C@H](O)CO [Fructose, fructose]",10.14,10
"O=C(CO)C(O)C(O)C(O)CO (stereo not drawn) [Allulose, allulose]",10.14,10
